In patent US20240316023A1, “BENEDIN, PIPERIDINE, 2-BENZHYDRYL-3-HYDROXY-N-METHYL-, HYDROCHLORIDE AND DERIVATIVES THEREOF FOR USE IN TREATING KLEINE-LEVIN SYNDROME” (priority 2021, published 2024):

Columns and labels:
[1] = tested on: patients with frequent episodes of KLS; conditions: compared to rest of stimulants; cited from earlier work
[2] = tested on: Mice, C57BL/6J, male; test: Novel object recognition (NOR) test, long-term memory; type: in vivo; conditions: donepezil 2 mg/kg i.p.; 3-days interval
Procedure: Long-term episodic memory was tested in the NOR test, using a 3-days interval between the acquisition session (called sample trial) and the retention session (called choice trial). This method allows to detect an improvement of memory in the natural forgetting condition:
The test was carried out in circular boxes (30 cm diameter, 40 cm high). The objects to be discriminated (L≈1≈h≈3-4 cm) differed in both color and shape and were referred as yellow duck and blue lego. They were fixed with a magnet to the floor of the boxes at 5 cm of the wall, 20 cm distant. Apparently, they have no natural significance for mice and they have never been associated with a reinforcement. In order to rule out the possibility of scent traces left on the objects and therefore the dependency of the recognition capacity of mice on the olfactory cue, the objects and the ground of the box were washed with an odorless disinfectant (Sanicid® diluted in water) and dried between each trial. A camcorder was fixed to the ceiling above the box to record the animals' activity. The experiment was analyzed blindly at a later time.
On the week before the test, animals were handled by the experimenter in charge of the experiment in order to be not stressed at the time of testing. For this purpose, the experimenter placed a small amount of litter, and then the mouse on its hand. […] The NOR test was completed over five days (see FIG. 1): • Day 1: Habituation trial. Animals were individually placed for a 15-min free exploration session in empty open boxes. • Day 2. Treatment administration and sample trial. […] They were individually placed 30 min after in the apparatus for a 6-min session with two identical objects (Duck, 50% of animals or Lego, 50% of animals). • […]. […]. The mice were individually placed for a 6-min session in the apparatus with two objects (Duck and Lego), one of the objects presented in sample trials (termed as familiar objects) and a novel object (Lego, 50% of animals or Duck, 50% of animals).
The sample and choice trials were recorded with the camera located above the apparatus. The time spent by mice in exploring the objects was measured during the sample trial and the choice trial.
Exploration of an object was defined as follows: directing the nose to the object at a distance≤2 cm and/or touching it with the nose or forelimbs: turning around or biting the object, or sitting on the object were not considered as exploratory behavior.
Data recorded: • L=exploration time of the left object in the sample trial. • R=exploration time of the right object in the sample trial. • N=exploration time of the new object in the choice trial. • F=exploration time of the familiar object in the choice trial. Object recognition task indices include the following parameters: • Exploration indices: • ST=L+R=exploration time (left object+right object) in the sample trial. • CT=N+F=exploration time (new object+familiar object) in the choice trial. • Two memory indices: • N−F=difference of exploration time between the new object and the familiar object in the choice trial.
Statistical analyses: • Read-outs: DI, N−F, ST, CT, N, F • Unpaired Student's t test: Donep 2 group vs. Control group. • One-way ANOVA, Dunnett test: • Benedin groups vs. Control group. • Benedin groups vs. Donep 2 group. • Read-outs: DI and N−F, for all groups, paired Student's t test, difference vs. 0. • Body weight: one-way ANOVA.

NC12CC3CC(CC(C3)C1)C2 [Amantadine]
response (reducing the number of episodes) [1]: 41%

Donepezil hydrochloride [reference compound]
recognition of the familiar object, i.e. memory [2]: improved the recognition of the familiar object
